According to publication PMC11959975 (Acta Pharmaceutica Sinica. B, 2025):

Experiments:
[1] = test system: permanent cerebral ischemic stroke in rats; experiment: Rat model of permanent ischemic stroke; type: in vivo, SD rats; conditions: permanent IS rats
MCAO model of SD rats [2] = experiment: Rat model of chronic ischemic stroke; type: in vivo; conditions: chronic IS rats
MCAO model of SD rats [3] = experiment: Rat model of acute ischemic stroke; type: in vivo; conditions: acute IS rats, 10 mg/kg
[4] = test system: arteriovenous shunt thrombosis model in rats; experiment: Arteriovenous shunt thrombosis model in rats; type: in vivo; conditions: 10 mg/kg, i.v.
mice = experiment: Bleeding time of tail clipping in mice; type: in vivo; conditions: 5 mg/kg

SMILES	reduction of cerebral infarction volume vs model group ([1]; 10 mg/kg)	NSS value ([1]; day 1 after surgery)	reduction of cerebral infarction volume (MCAO model of SD rats [2]; 5.0 mg/kg)	misstep frequency (grid test) (MCAO model of SD rats [2]; day 14 after modeling)	reduction of cerebral infarction volume vs model group (MCAO model of SD rats [3])	inhibition (%) of dry thrombus [4]	inhibition (%) of wet thrombus [4]	Bleeding time (mice)
CCCCC1OC(=O)c2ccccc21 (stereo not drawn) [NBP, R,S-3-n-butylphthalide]	7%	lower than that of the model group but without significant difference	32%	significantly higher than that in the sham group	35%			
CCCC[C@@H]1OC(=O)c2ccccc21 [S-NBP]						25.95%	33.24%	
CCCCC(O)c1ccccc1C(=O)[O-].[K+] (stereo not drawn) [PHPB, potassium 2-(1-hydroxypentyl)-benzoate]						11.32%	15.39%	
CC(=O)Oc1ccccc1C(=O)O [ASP, O-acetoxybenzoic acid]						39.67%	40.74%	22.52 ± 1.31 min
